Measurements published in the supplement of paper PMC10307832.

Columns and labels:
Test in all cases: relative viability (nuclei count vs DMSO), 5 days (fraction); higher = more cells survive
A-427 = tested on: A-427
How it was run: (§1)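 Lung cancer cell lines in 1536-well plates were dosed by pin tool the day after seeding, either with one drug alone or with a fixed anchor-drug dose plus five library-drug doses (not always all listed) in √10 steps. After 5 days, cells were fixed and their nuclei stained in one step (final 0.05% Triton X-100, 1% formaldehyde, 1 ug/ml Hoechst), then counted on 4× images. Relative viability is the nuclei count in treated wells divided by that in vehicle wells. Values are medians of duplicate plates.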

CAL-12T = tested on: CAL-12T
How it was run: as §1

EPLC-272H = tested on: EPLC-272H
How it was run: as §1

HCC-15 = tested on: HCC-15
How it was run: as §1

HCC-44 = tested on: HCC-44
How it was run: as §1

LC-2-ad = tested on: LC-2-ad
How it was run: as §1

LCLC-97TM1 = tested on: LCLC-97TM1
How it was run: as §1

NCI-H1395 = tested on: NCI-H1395
How it was run: as §1

NCI-H1734 = tested on: NCI-H1734
How it was run: as §1

NCI-H1792 = tested on: NCI-H1792
How it was run: as §1

NCI-H1915 = tested on: NCI-H1915
How it was run: as §1

NCI-H1975 = tested on: NCI-H1975
How it was run: as §1

NCI-H2342 = tested on: NCI-H2342
How it was run: as §1

NCI-H2347 = tested on: NCI-H2347
How it was run: as §1

NCI-H2405 = tested on: NCI-H2405
How it was run: as §1

NCI-H838 = tested on: NCI-H838
How it was run: as §1

SW 900 = tested on: SW 900
How it was run: as §1

## Cc1cn(-c2cc(NC(=O)c3ccc(C)c(Nc4nccc(-c5cccnc5)n4)c3)cc(C(F)(F)F)c2)cn1 [Nilotinib] + NC(=O)Nc1cc(-c2cccc(F)c2)sc1C(=O)N[C@H]1CCCNC1 [AZD7762] (partner 0.2 µM)
A-427; first compound 0.001 µM
  relative viability: 0.716
A-427; first compound 0.003162 µM
  relative viability: 0.501
A-427; first compound 0.01 µM
  relative viability: 0.681
A-427; first compound 0.03162 µM
  relative viability: 0.535
A-427; first compound 0.1 µM
  relative viability: 0.338
CAL-12T; first compound 0.001 µM
  relative viability: 0.607
CAL-12T; first compound 0.003162 µM
  relative viability: 0.423
CAL-12T; first compound 0.01 µM
  relative viability: 0.631
CAL-12T; first compound 0.03162 µM
  relative viability: 0.539
CAL-12T; first compound 0.1 µM
  relative viability: 0.605
EPLC-272H; first compound 0.001 µM
  relative viability: 0.267
EPLC-272H; first compound 0.003162 µM
  relative viability: 0.13
EPLC-272H; first compound 0.01 µM
  relative viability: 0.164
EPLC-272H; first compound 0.03162 µM
  relative viability: 0.186
EPLC-272H; first compound 0.1 µM
  relative viability: 0.198
HCC-15; first compound 0.001 µM
  relative viability: 1.1
HCC-15; first compound 0.003162 µM
  relative viability: 1.28
HCC-15; first compound 0.01 µM
  relative viability: 1.39
HCC-15; first compound 0.03162 µM
  relative viability: 1.25
HCC-15; first compound 0.1 µM
  relative viability: 1.19
HCC-44; first compound 0.001 µM
  relative viability: 0.969
HCC-44; first compound 0.003162 µM
  relative viability: 1
HCC-44; first compound 0.01 µM
  relative viability: 0.996
HCC-44; first compound 0.1 µM
  relative viability: 0.923
LC-2-ad; first compound 0.001 µM
  relative viability: 0.855
LC-2-ad; first compound 0.003162 µM
  relative viability: 1.01
LC-2-ad; first compound 0.01 µM
  relative viability: 1.02
LC-2-ad; first compound 0.03162 µM
  relative viability: 0.748
LC-2-ad; first compound 0.1 µM
  relative viability: 0.377
LCLC-97TM1; first compound 0.003162 µM
  relative viability: 0.366
LCLC-97TM1; first compound 0.1 µM
  relative viability: 0.0966
NCI-H1395; first compound 0.001 µM
  relative viability: 0.4
NCI-H1395; first compound 0.01 µM
  relative viability: 0.37
NCI-H1395; first compound 0.03162 µM
  relative viability: 0.361
NCI-H1395; first compound 0.1 µM
  relative viability: 0.362
NCI-H1734; first compound 0.001 µM
  relative viability: 0.498
NCI-H1734; first compound 0.003162 µM
  relative viability: 0.617
NCI-H1734; first compound 0.01 µM
  relative viability: 0.558
NCI-H1734; first compound 0.03162 µM
  relative viability: 0.387
NCI-H1734; first compound 0.1 µM
  relative viability: 0.219
NCI-H1792; first compound 0.001 µM
  relative viability: 0.483
NCI-H1792; first compound 0.003162 µM
  relative viability: 0.638
NCI-H1792; first compound 0.01 µM
  relative viability: 0.467
NCI-H1792; first compound 0.03162 µM
  relative viability: 0.385
NCI-H1792; first compound 0.1 µM
  relative viability: 0.263
NCI-H1915; first compound 0.001 µM
  relative viability: 0.682
NCI-H1915; first compound 0.003162 µM
  relative viability: 0.683
NCI-H1915; first compound 0.01 µM
  relative viability: 0.718
NCI-H1915; first compound 0.03162 µM
  relative viability: 0.67
NCI-H1915; first compound 0.1 µM
  relative viability: 0.619
NCI-H1975; first compound 0.001 µM
  relative viability: 0.622
NCI-H1975; first compound 0.003162 µM
  relative viability: 0.571
NCI-H1975; first compound 0.01 µM
  relative viability: 0.744
NCI-H1975; first compound 0.03162 µM
  relative viability: 0.613
NCI-H1975; first compound 0.1 µM
  relative viability: 0.667
NCI-H2342; first compound 0.001 µM
  relative viability: 0.425
NCI-H2342; first compound 0.003162 µM
  relative viability: 0.315
NCI-H2342; first compound 0.01 µM
  relative viability: 0.411
NCI-H2342; first compound 0.03162 µM
  relative viability: 0.463
NCI-H2342; first compound 0.1 µM
  relative viability: 0.427
NCI-H2347; first compound 0.001 µM
  relative viability: 0.691
NCI-H2347; first compound 0.003162 µM
  relative viability: 0.597
NCI-H2347; first compound 0.01 µM
  relative viability: 0.748
NCI-H2347; first compound 0.03162 µM
  relative viability: 0.567
NCI-H2347; first compound 0.1 µM
  relative viability: 0.596
NCI-H2405; first compound 0.001 µM
  relative viability: 0.684
NCI-H2405; first compound 0.003162 µM
  relative viability: 0.628
NCI-H2405; first compound 0.01 µM
  relative viability: 0.665
NCI-H2405; first compound 0.03162 µM
  relative viability: 0.557
NCI-H2405; first compound 0.1 µM
  relative viability: 0.399
NCI-H838; first compound 0.001 µM
  relative viability: 0.86
NCI-H838; first compound 0.003162 µM
  relative viability: 1.01
NCI-H838; first compound 0.03162 µM
  relative viability: 0.9
NCI-H838; first compound 0.1 µM
  relative viability: 0.995
SW 900; first compound 0.003162 µM
  relative viability: 0.479
SW 900; first compound 0.01 µM
  relative viability: 0.575
SW 900; first compound 0.03162 µM
  relative viability: 0.369
SW 900; first compound 0.1 µM
  relative viability: 0.304

## CN1CCN(CCOc2cc(OC3CCOCC3)c3c(Nc4c(Cl)ccc5c4OCO5)ncnc3c2)CC1 [Saracatinib] + NC(=O)Nc1cc(-c2cccc(F)c2)sc1C(=O)N[C@H]1CCCNC1 [AZD7762] (partner 0.2 µM)
A-427; first compound 0.02 µM
  relative viability: 0.759
A-427; first compound 0.2 µM
  relative viability: 0.636
A-427; first compound 0.6325 µM
  relative viability: 0.611
A-427; first compound 2 µM
  relative viability: 0.569
CAL-12T; first compound 0.02 µM
  relative viability: 0.612
CAL-12T; first compound 0.2 µM
  relative viability: 0.6
CAL-12T; first compound 0.6325 µM
  relative viability: 0.662
CAL-12T; first compound 2 µM
  relative viability: 0.699
EPLC-272H; first compound 0.02 µM
  relative viability: 0.203
EPLC-272H; first compound 0.2 µM
  relative viability: 0.229
EPLC-272H; first compound 0.6325 µM
  relative viability: 0.18
EPLC-272H; first compound 2 µM
  relative viability: 0.245
HCC-15; first compound 0.02 µM
  relative viability: 1.29
HCC-15; first compound 0.2 µM
  relative viability: 0.874
HCC-15; first compound 0.6325 µM
  relative viability: 1.14
HCC-15; first compound 2 µM
  relative viability: 1.21
HCC-44; first compound 0.02 µM
  relative viability: 1.07
HCC-44; first compound 0.2 µM
  relative viability: 0.941
HCC-44; first compound 0.6325 µM
  relative viability: 1.03
HCC-44; first compound 2 µM
  relative viability: 1.01
LC-2-ad; first compound 0.02 µM
  relative viability: 0.841
LC-2-ad; first compound 0.2 µM
  relative viability: 0.778
LC-2-ad; first compound 0.6325 µM
  relative viability: 0.835
LC-2-ad; first compound 2 µM
  relative viability: 0.726
LCLC-97TM1; first compound 0.02 µM
  relative viability: 0.294
LCLC-97TM1; first compound 0.6325 µM
  relative viability: 0.398
LCLC-97TM1; first compound 2 µM
  relative viability: 0.265
NCI-H1395; first compound 0.02 µM
  relative viability: 0.404
NCI-H1395; first compound 0.2 µM
  relative viability: 0.397
NCI-H1395; first compound 0.6325 µM
  relative viability: 0.388
NCI-H1395; first compound 2 µM
  relative viability: 0.382
NCI-H1734; first compound 0.02 µM
  relative viability: 0.537
NCI-H1734; first compound 0.6325 µM
  relative viability: 0.622
NCI-H1734; first compound 2 µM
  relative viability: 0.566
NCI-H1792; first compound 0.02 µM
  relative viability: 0.618
NCI-H1792; first compound 0.2 µM
  relative viability: 0.542
NCI-H1792; first compound 0.6325 µM
  relative viability: 0.831
NCI-H1792; first compound 2 µM
  relative viability: 0.648
NCI-H1915; first compound 0.02 µM
  relative viability: 0.632
NCI-H1915; first compound 0.2 µM
  relative viability: 0.639
NCI-H1915; first compound 0.6325 µM
  relative viability: 0.684
NCI-H1915; first compound 2 µM
  relative viability: 0.696
NCI-H1975; first compound 0.02 µM
  relative viability: 0.812
NCI-H1975; first compound 0.2 µM
  relative viability: 0.789
NCI-H1975; first compound 0.6325 µM
  relative viability: 0.659
NCI-H1975; first compound 2 µM
  relative viability: 0.468
NCI-H2342; first compound 0.02 µM
  relative viability: 0.721
NCI-H2342; first compound 0.2 µM
  relative viability: 0.471
NCI-H2342; first compound 0.6325 µM
  relative viability: 0.562
NCI-H2342; first compound 2 µM
  relative viability: 0.515
NCI-H2347; first compound 0.02 µM
  relative viability: 0.828
NCI-H2347; first compound 0.2 µM
  relative viability: 0.663
NCI-H2347; first compound 0.6325 µM
  relative viability: 0.623
NCI-H2347; first compound 2 µM
  relative viability: 0.657
NCI-H2405; first compound 0.02 µM
  relative viability: 0.702
NCI-H2405; first compound 0.2 µM
  relative viability: 0.594
NCI-H2405; first compound 0.6325 µM
  relative viability: 0.554
NCI-H2405; first compound 2 µM
  relative viability: 0.388
NCI-H838; first compound 0.02 µM
  relative viability: 0.957
NCI-H838; first compound 0.2 µM
  relative viability: 0.886
NCI-H838; first compound 0.6325 µM
  relative viability: 0.989
NCI-H838; first compound 2 µM
  relative viability: 0.852
SW 900; first compound 0.02 µM
  relative viability: 0.696
SW 900; first compound 0.2 µM
  relative viability: 0.545
SW 900; first compound 0.6325 µM
  relative viability: 0.533
SW 900; first compound 2 µM
  relative viability: 0.492
